Some results are limits rather than exact numbers.

For this test, the target named is T1, human recombinant OX2 (hOX2) receptor (Homo sapiens, UniProt O43614).
T1 construct: host or cells: CHO cells
T1 sequence (O43614 1-444): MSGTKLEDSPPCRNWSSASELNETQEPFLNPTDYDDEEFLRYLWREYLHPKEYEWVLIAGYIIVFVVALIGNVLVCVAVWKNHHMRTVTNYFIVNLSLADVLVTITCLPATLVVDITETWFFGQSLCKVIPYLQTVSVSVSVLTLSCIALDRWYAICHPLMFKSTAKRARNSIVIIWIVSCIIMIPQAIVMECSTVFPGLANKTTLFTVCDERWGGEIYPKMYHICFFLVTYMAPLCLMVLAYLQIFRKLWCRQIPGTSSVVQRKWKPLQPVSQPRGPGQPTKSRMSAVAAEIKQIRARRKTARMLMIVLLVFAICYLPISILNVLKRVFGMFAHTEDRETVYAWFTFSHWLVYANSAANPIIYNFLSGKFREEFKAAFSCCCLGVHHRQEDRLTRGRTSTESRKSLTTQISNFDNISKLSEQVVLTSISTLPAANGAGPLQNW
The experiment in a line: IP-1 accumulation assay (IP-One HTRF) in hOX2-CHO cells. It counts as cell-based. The note with it: 60 min at 37° C., mean of at least two independent experiments, read-out: EC50_OX2R Category. Here is the method: Example 94: IP-1 Accumulation Assay
The accumulation of Inositol-1 Monophosphate (IP-1) was measured using IP-One HTRF® Terbium cryptate based assay (Cisbio) in human recombinant OX1 (hOX1) and at OX2 (hOX2) receptors expressed in CHO cells (DiscoverX) according to the manufacturer's instructions for cells tested in suspension.
hOX1-CHO and hOX2-CHO cells were seeded into white 384-well plates at a density of 20,000 cells/well in Hank's Balanced Salt Solution (HBSS) containing 20 mM HEPES pH 7.4, 50 mM, LiCl and 0.1% and Bovine Serum Albumin (BSA).
Compounds of the present disclosure were tested in a 11 points concentration response curve (CRC) serially diluted in neat DMSO at 200 fold concentrations and added by Echo acoustic liquid handling (Labcyte) to the cells (0.5% DMSO final in the assay). After 60 min of incubation at 37° C. detection reagents, IP1-d2 tracer and anti-IP1-cryptate were diluted in lysis buffer according to the manufacturer's descriptions and added to the cells.
Following 60 mi incubation at room temperature, time-resolved fluorescence (HTRF) was measured at 615 nm and 665 nm by Envision Multilabel reader (Perkin Elmer) and the HTRF ratio (A665/A615×10^4) was calculated.
The IP-1 accumulation response was expressed as percentage of the maximal OX-A response.
Curve fitting and EC50 estimations were carried out using a four-parameter logistic model using XLfit Software. Mean data of EC50 are calculated from at least two independent experiments performed in duplicates.
On the technique in general: Time-resolved FRET reads energy transfer from a long-lived donor to a nearby acceptor.

As to `COC(=O)N1CCCC2(COCC(=O)N2)C1CO[C@H]1CC[C@@H](c2ccccc2)CC1` (mixture of isomers) [Example 4, Methyl (CIS)-2-oxo-7-({[(CIS)-4-phenylcyclohexyl]oxy}methyl)-4-oxa-1,8-diazaspiro[5.5]undecane-8-carboxylate], the EC50 fell in the range of 1000 to 10000 nM.

On to `O=C1NC2(CCCN(CC(F)(F)F)C2CO[C@H]2CC[C@@H](c3ccccc3)CC2)CCO1` (mixture of isomers) [Example 68, rel-(6R,7R)-7-({[(CIS)-4-phenylcyclohexyl]oxy}methyl)-8-(2,2,2-trifluoroethyl)-3-oxa-1,8-diazaspiro[5.5] undecan-2-one], for which the EC50 was more than 10000 nM.

For the compound `C[C@@H]1C[C@@]2(COCC(=O)N2)[C@H](CO[C@H]2CC[C@@H](c3ccccc3)CC2)N1C(=O)NCC(F)(F)F` [Example 62, (1R,3R,5S)-3-methyl-7-oxo-1-({[(CIS)-4-phenylcyclohexyl]oxy}methyl)-N-(2,2,2-trifluoroethyl)-9-oxa-2,6-diazaspiro[4.5]decane-2-carboxamide], the EC50 is less than 100 nM.

Consider `CN1CCC2(CCCN(C(=O)OCC(F)F)C2CO[C@H]2CC[C@@H](c3ccccc3)CC2)NC1=O` (mixture of isomers) [Example 57, 2,2-difluoroethyl-rel-(6R,7R)-3-methyl-2-oxo-7-({[(CIS)-4-phenylcyclohexyl]oxy}methyl)-1,3,8-triazaspiro [5.5]undecane-8-carboxylate], for which the EC50 is more than 10000 nM.

Take `COC(=O)N1CCC[C@]2(COCC(=O)N2)[C@H]1CO[C@H]1CC[C@@H](c2ccccc2)CC1` (single isomer, unassigned) [Example 5]: the EC50 was more than 10000 nM.

With `C[C@@H]1C[C@@]2(COCC(=O)N2)[C@H](Cc2cccc(-c3cc(F)cc(F)c3)c2F)N1C(=O)C1CC1F` (single isomer, unassigned) [Example 92], the EC50 is 100 to 1000 nM.

For `CCNC(=O)N1CCC[C@@]2(CCOC(=O)N2)[C@@H]1Cc1cccc(-c2ccccc2)c1` (racemic) [Example 24, (CIS)-7-({[1,1′-biphenyl]-3-yl}methyl)-N-ethyl-2-oxo-3-oxa-1,8-diazaspiro[5.5]undecane-8-carboxamide], the EC50 lay within 1000 to 10000 nM.

`COC(=O)N1CCC[C@@]2(CCOC(=O)N2)[C@@H]1Cc1cccc(-c2ccccc2)c1` (single isomer, unassigned) [Example 21]: the EC50 is more than 10000 nM.

Consider `CCNC(=O)N1[C@H](C)C[C@@]2(COCC(=O)N2)[C@@H]1CO[C@H]1CC[C@@H](c2ccccc2)CC1` [Example 47, (1R,3R,5S)-N-ethyl-3-methyl-7-oxo-1-({[(CIS)-4-phenylcyclohexyl]oxy}methyl)-9-oxa-2,6-diazaspiro[4.5] decane-2-carboxamide], for which the EC50 was less than 100 nM.

In the case of `O=C1COC[C@@]2(C[C@@H](C(F)F)N(C(=O)[C@H]3C[C@@H](F)C3)[C@H]2Cc2cccc(-c3cc(F)cc(F)c3)c2F)N1` [Example 80, (1S,3S,5S)-3-(difluoromethyl)-2-[(1s,3s)-3-fluorocyclobutanecarbonyl]-1-({2,3′,5′-trifluoro-[1,1′-biphenyl]-3-yl}methyl)-9-oxa-2,6-diazaspiro[4.5]decan-7-one], the EC50 was in the range of 100 to 1000 nM.

Regarding `C[C@@H]1C[C@@]2(COCC(=O)N2)[C@H](Cc2cccc(-c3cc(F)cc(F)c3)c2F)N1C(=O)C1CC1F` (single isomer, unassigned) [Example 91], the EC50 was in the range of 100 to 1000 nM.

As to `CCNC(=O)N1CCCC2(COCCS(=O)(=O)N2)C1CO[C@H]1CC[C@@H](c2ccccc2)CC1` (mixture of isomers) [Example 38, rel-(1R,6S)-N-ethyl-8,8-dioxo-1-({[(CIS)-4-phenylcyclohexyl]oxy}methyl)-11-oxa-8λ^6-thia-2,7-diazaspiro[5.6]dodecane-2-carboxamide], the EC50 lay in the range of 100 to 1000 nM.

For `C[C@@H]1C[C@@]2(COCC(=O)N2)[C@H](CO[C@H]2CC[C@@H](c3ccccc3)CC2)N1C(=O)NCC(F)F` [Example 50, (1R,3R,5S)-N-(2,2-difluoroethyl)-3-methyl-7-oxo-1-({[(CIS)-4-phenylcyclohexyl]oxy}methyl)-9-oxa-2,6-diazaspiro[4.5]decane-2-carboxamide], the EC50 was less than 100 nM.

Take `CCNC(=O)N1CCCC2(CCCC(=O)N2)C1CO[C@H]1CC[C@@H](c2ccccc2)CC1` (mixture of isomers) [Example 33, rel-(6S,7R)-N-ethyl-2-oxo-7-({[(CIS)-4-phenylcyclohexyl]oxy}methyl)-1,8-diazaspiro[5.5]undecane-8-carboxamide]: the EC50 is less than 100 nM.

As for `CCNC(=O)N1CCC[C@]2(CCOC(=O)N2)[C@H]1Cc1cccc(-c2ccccc2)c1` [Example 26, (6S,7R)-7-({[1,1′-biphenyl]-3-yl}methyl)-N-ethyl-2-oxo-3-oxa-1,8-diazaspiro[5.5]undecane-8-carboxamide], the EC50 was more than 10000 nM.

Consider `CCNC(=O)N1CCC[C@]2(CCOC(=O)N2)[C@H]1CO[C@H]1CC[C@@H](c2ccccc2)CC1` (single isomer, unassigned) [Example 13], for which the EC50 was more than 10000 nM.

For the compound `CCNC(=O)N1CCC[C@]2(CNS(=O)(=O)N2)[C@H]1Cc1cccc(-c2ccccc2)c1` (single isomer, unassigned) [Example 32], the EC50 was more than 10000 nM.

`CCNC(=O)N1CCCC2(CCOC(=O)N2)C1CO[C@H]1CC[C@@H](c2ccccc2)CC1` (stereo partly drawn) [Example 12, (Trans)-N-ethyl-2-oxo-7-({[(CIS)-4-phenylcyclohexyl]oxy}methyl)-3-oxa-1,8-diazaspiro[5.5]undecane-8-carboxamide]: the EC50 lay within 1000 to 10000 nM.

Turning to `C[C@@H]1C[C@@]2(COCC(=O)N2)[C@H](CO[C@H]2CC[C@@H](c3ccccc3)CC2)N1C(=O)C(C)(C)O` [Example 49, (1R,3R,5S)-2-(2-hydroxy-2-methylpropanoyl)-3-methyl-1-({[(CIS)-4-phenylcyclohexyl]oxy}methyl)-9-oxa-2,6-diazaspiro[4.5]decan-7-one], the EC50 was 1000 to 10000 nM.

For the compound `O=C1COCC2(CCCN(C(=O)[C@H]3C[C@@H](F)C3)C2COC2CCN(c3ncc(F)cn3)CC2)N1` (mixture of isomers) [Example 78, rel-(6S,7R)-8-(3-fluorocyclobutanecarbonyl)-7-({[1-(5-fluoropyrimidin-2-yl)piperidin-4-yl]oxy}methyl)-4-oxa-1,8-diazaspiro[5.5]undecan-2-one], the EC50 lay in the range of 100 to 1000 nM.

Turning to `CCNC(=O)N1CCC[C@]2(CCCC(=O)N2)[C@H]1CO[C@H]1CC[C@@H](c2ccccc2)CC1` (single isomer, unassigned) [Example 34], the EC50 was more than 10000 nM.

In the case of `C[C@@H]1C[C@@]2(COCC(=O)N2)[C@H](Cc2cccc(-c3cc(F)cc(F)c3)c2F)N1C(=O)C1CCC1` [Example 81, (1S,3R,5S)-2-cyclobutanecarbonyl-3-methyl-1-({2,3′,5′-trifluoro-[1,1′-biphenyl]-3-yl}methyl)-9-oxa-2,6-diazaspiro[4.5]decan-7-one], the EC50 was less than 100 nM.

Turning to `C[C@@H]1C[C@@]2(COCC(=O)N2)[C@H](Cc2cccc(-c3cc(F)cc(F)c3)c2F)N1S(C)(=O)=O` [Example 93, (1S,3R,5S)-2-methanesulfonyl-3-methyl-1-({2,3′,5′-trifluoro-[1,1′-biphenyl]-3-yl}methyl)-9-oxa-2,6-diazaspiro[4.5]decan-7-one], the EC50 was more than 10000 nM.

For the compound `CCNC(=O)N1CCCC2(COC(=O)N2)C1CO[C@H]1CC[C@@H](c2ccccc2)CC1` (mixture of isomers) [Example 10], the EC50 was 1000 to 10000 nM.

Source of the values: patent publication US20240254143A1, “OREXIN RECEPTOR AGONISTS AND USES THEREOF” (JAZZ PHARMACEUTICALS IRELAND LIMITED, priority 2021, published 2024).
